Measured values as given in article PMC4476171 (Cardiovascular Diabetology, 2015).
Each block holds one molecule with its values, some of them ahead of it.

Columns and labels:
[1] = tested on: anesthetized male Sprague–Dawley rats; experiment: Blood pressure recorded from indwelling femoral artery catheter; type: in vivo, rat; details: anesthetized male SD rats, mean ± SE, n = 6-8
Protocol: (§1) After one week of acclimation, SD rats (10–12 weeks old) were randomly divided into study groups. Rats were anesthetized with thiobutabarbital sodium (Inactin, 110 mg/kg, IP; Sigma-Aldrich, St. Louis, Missouri). Core temperature was maintained between 36 and 37°C throughout the study using a heating pad (Fine Science Tools Inc., Foster City, California). Polyethylene PE-50 tubing was inserted into the left femoral artery to permit intermittent blood sampling, and was also connected to a pressure transducer (NL108T2, Harvard Apparatus, Holliston, Massachusetts) for the measurement of blood pressure (BP) and heart rate (HR). […] Urine volumes were measured and urine was analyzed for electrolytes (Na^+, K^+, and Cl^−) and pH at multiple time points during the study. GFR and RBF were determined by inulin and PAH renal clearance at baseline and the end of the study. […]
(§2) One group of animals received four successive infusions of saline. […] BP, HR, urinary Na^+, K^+, and Cl^− excretion were measured at baseline and at the end of each 20 minute infusion period. GFR and RBF were assessed at baseline and at the end of the last infusion period in each animal (Figure 1).
(§3) Animals were randomized into 8 experimental groups (n = 6 - 8) (Table 1): Group 1. […] Parameters measured are the same as described in Protocol 1 (Figure 2).

[2] = tested on: anesthetized male Sprague–Dawley rats; experiment: Heart rate recorded from indwelling femoral artery catheter; type: in vivo, rat; details: anesthetized male SD rats, mean ± SE, n = 6-8
Protocol: as §1, §2, §3

[3] = tested on: anesthetized male Sprague–Dawley rats; experiment: Renal excretory function: urine flow rate, urinary Na+, K+, Cl− excretion; type: in vivo, rat; details: anesthetized male SD rats, Figure 5
Protocol: as §1, §2
(§4) Animals were randomized into 8 experimental groups (n = 6 - 8) (Table 1): Group 1. […] Parameters measured are the same as described in Protocol 1 (Figure 2). […]

[4] = tested on: anesthetized male Sprague–Dawley rats; experiment: Urine pH; type: in vivo, rat; details: anesthetized male SD rats, mean ± SE, n = 6-8
Protocol: as §1
(§5) Na^+, K^+, and Cl^− concentrations in plasma and urine were measured by a Roche Modular Chemistry System (Roche Diagnostics, Indianapolis, Indiana). Hematocrit was determined using a HESKA I-STAT Hematology Analyzer (HESKA, Fribourg, Switzerland). Urine pH was measured by a pH meter (Fisher Scientific, Pittsburgh, Pennsylvania). Inulin and PAH concentrations in plasma and urine were determined by colorimetric assays. […]

[5] = tested on: anesthetized male Sprague–Dawley rats; experiment: Glomerular filtration rate by inulin clearance; type: in vivo, rat; details: anesthetized male SD rats
Protocol: as §1, §2, §4

[6] = tested on: anesthetized male Sprague–Dawley rats; experiment: Renal blood flow by para-aminohippurate clearance; type: in vivo, rat; details: anesthetized male SD rats
Protocol: as §1, §2, §4

[7] = tested on: anesthetized male Sprague–Dawley rats; experiment: Plasma K+ concentration; type: in vivo, rat; details: anesthetized male SD rats, mean ± SE, n = 6-8
Protocol: as §1, §5

[8] = tested on: anesthetized male Sprague–Dawley rats; experiment: Hematocrit; type: in vivo, rat; details: anesthetized male SD rats, mean ± SE, n = 6-8
Protocol: as §1, §5

[9] = tested on: anesthetized male Sprague–Dawley rats; experiment: Plasma glucose; type: in vivo, rat; details: anesthetized male SD rats, mean ± SE, n = 6-8
Protocol: After one week of acclimation, SD rats (10–12 weeks old) were randomly divided into study groups. Rats were anesthetized with thiobutabarbital sodium (Inactin, 110 mg/kg, IP; Sigma-Aldrich, St. Louis, Missouri). Core temperature was maintained between 36 and 37°C throughout the study using a heating pad (Fine Science Tools Inc., Foster City, California). Polyethylene PE-50 tubing was inserted into the left femoral artery to permit intermittent blood sampling, and was also connected to a pressure transducer (NL108T2, Harvard Apparatus, Holliston, Massachusetts) for the measurement of blood pressure (BP) and heart rate (HR). The signal from the pressure transducer was transmitted to a Ponemah data acquisition system (Data Science International, St. Paul, Minnesota). The left femoral vein was cannulated with PE-50 tubing for solution administration and compound delivery, respectively. […] In addition, 0.9% saline was infused via a Y shape adapter to the left femoral vein at a rate of 0.1 ml/100 g/h. Rats were allowed to stabilize for ~1 hour before initiation of the study. The experimental protocol was initiated with a 20-minute baseline urine collection, followed by administration of either vehicle or test compound at a rate of 0.1 ml/100 g/h for 60-minutes.

[10] = tested on: anesthetized male Sprague–Dawley rats; experiment: Plasma insulin; type: in vivo, rat; details: anesthetized male SD rats, mean ± SE, n = 6-8
Protocol: as §1, with “(HR). The signal from the pressure transducer was transmitted to a Ponemah data acquisition system (Data Science International, St. Paul, Minnesota). The left femoral vein was cannulated with PE-50 tubing for solution administration and compound delivery, respectively. The bladder was catheterized with PE-100 tubing to allow timed collections of urine.” for “(HR).”

[11] = biological target: T1, DPP4 (Rattus norvegicus, UniProt P14740); experiment: Plasma DPP4 activity, continuous fluorometric assay with Gly-Pro-AMC; type: in vivo; details: anesthetized male SD rats, MK-0626 1 mg/kg iv bolus, substrate Gly-Pro-AMC
T1 construct: from tissue; host or cells: plasma of Sprague-Dawley rats
Protocol: as §1, §5

[12] = Plasma concentration of active GLP-1 (ELISA); type: in vivo, rat; details: anesthetized male SD rats
Protocol: as §1, with “(HR). The signal from the pressure transducer was transmitted to a Ponemah data acquisition system (Data Science International, St. Paul, Minnesota). The left femoral vein was cannulated with PE-50 tubing for solution administration and compound delivery, respectively. The bladder was catheterized with PE-100 tubing to allow timed collections of urine.” for “(HR).”
Na^+, K^+, and Cl^− concentrations in plasma and urine were measured by a Roche Modular Chemistry System (Roche Diagnostics, Indianapolis, Indiana). Hematocrit was determined using a HESKA I-STAT Hematology Analyzer (HESKA, Fribourg, Switzerland). Urine pH was measured by a pH meter (Fisher Scientific, Pittsburgh, Pennsylvania). Inulin and PAH concentrations in plasma and urine were determined by colorimetric assays. […] Plasma DPP4 activity was measured using a continuous fluorometric assay with the substrate Gly-Pro-AMC, which is cleaved by DPP4 to release the fluorescent AMC leaving group.

[13] = group MK-0626 + Saline, baseline = 20 min period prior to IV administration
[14] = MK-0626 1 mg/kg iv bolus followed by saline iv infusion
[15] = MK-0626 1 mg/kg iv bolus followed by saline iv infusion, end of study

T1 sequence (P14740 37-767 limits assumed): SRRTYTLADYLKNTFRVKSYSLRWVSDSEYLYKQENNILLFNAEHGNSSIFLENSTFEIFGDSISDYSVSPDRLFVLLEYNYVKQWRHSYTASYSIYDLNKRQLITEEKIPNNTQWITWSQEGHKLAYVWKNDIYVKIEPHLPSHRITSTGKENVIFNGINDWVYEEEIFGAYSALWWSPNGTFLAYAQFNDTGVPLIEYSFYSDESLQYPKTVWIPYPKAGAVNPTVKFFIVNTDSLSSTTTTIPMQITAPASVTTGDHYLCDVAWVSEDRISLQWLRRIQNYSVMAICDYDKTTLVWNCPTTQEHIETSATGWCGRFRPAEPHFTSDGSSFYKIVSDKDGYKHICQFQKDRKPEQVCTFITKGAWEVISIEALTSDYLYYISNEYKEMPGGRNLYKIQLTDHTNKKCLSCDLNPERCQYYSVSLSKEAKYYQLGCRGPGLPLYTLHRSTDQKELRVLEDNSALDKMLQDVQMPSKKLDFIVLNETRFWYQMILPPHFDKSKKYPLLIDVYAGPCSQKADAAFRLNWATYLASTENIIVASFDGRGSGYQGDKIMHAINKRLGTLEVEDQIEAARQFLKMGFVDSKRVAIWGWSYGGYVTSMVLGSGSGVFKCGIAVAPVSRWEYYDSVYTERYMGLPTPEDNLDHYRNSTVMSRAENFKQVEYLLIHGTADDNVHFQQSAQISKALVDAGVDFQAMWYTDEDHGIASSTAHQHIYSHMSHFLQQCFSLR

Plasma DPP4 activity, inhibition [11]: greater than 90%
SMILES: CN(C)C(=O)[C@@H](c1ccc(-c2ccc3ncnn3c2)cc1)[C@H](N)C(=O)N1CCC(F)(F)C1.Cl [MK-0626]
BP, baseline [1, 13]: 123.5 ± 3.7 mmHg
BP, treatment [1, 14]: 121.9 ± 3.9 mmHg
HR, baseline [2, 13]: 381.2 ± 10.0 bpm
HR, treatment [2, 14]: 380.9 ± 10.3 bpm
effect on diuresis or natriuresis ([3]; MK-0626 1 mg/kg iv bolus alone): no significant effect
urine pH, baseline [4, 13]: 6.07 ± 0.17
urine pH, treatment [4, 14]: 6.25 ± 0.20
effect on GFR ([5]; all animals that received MK-0626 1 mg/kg, not further enhanced by increasing doses of GLP-1, Figure 6b): increased
effect on RBF ([6]; MK-0626 1 mg/kg alone, in the absence of GLP-1 administration): increased
plasma K+, baseline [7, 13]: 4.4 ± 0.14 mmol/L
plasma K+, treatment [7, 15]: 4.2 ± 0.10 mmol/L
Hematocrit, baseline [8, 13]: 40.0 ± 0.8%
Hematocrit, treatment [8, 15]: 38.2 ± 0.6%
Glucose, baseline [9, 13]: 134.9 ± 6.0 mg/dL
Glucose, treatment [9, 15]: 135.8 ± 7.3 mg/dL
Insulin, baseline [10, 13]: 2.5 ± 0.2 ng/mL
Insulin, treatment [10, 15]: 2.7 ± 0.1 ng/mL
circulating GLP-1 level, baseline before MK-0626 alone ([12]; group MK-0626 alone, baseline, ELISA, active GLP-1): 3.4 pmpol/L
circulating GLP-1 level after MK-0626 alone ([12]; MK-0626 1 mg/kg iv bolus alone (no exogenous GLP-1), ELISA, active GLP-1): 5.5 pmol/L

SMILES: CC[C@H](C)[C@H](NC(=O)[C@H](Cc1ccccc1)NC(=O)[C@H](CCC(=O)O)NC(=O)[C@H](CCCCN)NC(=O)[C@H](C)NC(=O)[C@H](C)NC(=O)[C@H](CCC(N)=O)NC(=O)CNC(=O)[C@H](CCC(=O)O)NC(=O)[C@H](CC(C)C)NC(=O)[C@H](Cc1ccc(O)cc1)NC(=O)[C@H](CO)NC(=O)[C@H](CO)NC(=O)[C@@H](NC(=O)[C@H](CC(=O)O)NC(=O)[C@H](CO)NC(=O)[C@@H](NC(=O)[C@H](Cc1ccccc1)NC(=O)[C@@H](NC(=O)CNC(=O)[C@H](CCC(=O)O)NC(=O)[C@H](C)NC(=O)[C@@H](N)Cc1c[nH]cn1)[C@@H](C)O)[C@@H](C)O)C(C)C)C(=O)N[C@@H](C)C(=O)N[C@@H](Cc1c[nH]c2ccccc12)C(=O)N[C@@H](CC(C)C)C(=O)N[C@H](C(=O)N[C@@H](CCCCN)C(=O)NCC(=O)N[C@@H](CCCNC(=N)N)C(N)=O)C(C)C [GLP-1, Glucagon-like peptide 1, reference compound]
effect on diuresis, natriuresis, chloruresis and kaliuresis ([3]; saline bolus followed by GLP-1 iv infusion alone (2.4, 4.8, 9.6 pmol/kg/min)): modest, albeit significant increase
effect on GFR ([5]; GLP-1 iv infusion alone, no dose-dependence, Figure 6a): modest increase
effect on RBF ([6]; GLP-1 alone, only at the highest dose 9.6 pmol/kg/min, Figure 6c): significant effect
effect on plasma active GLP-1 levels ([12]; exogenous GLP-1 infusion 2.4, 4.8 and 9.6 pmol/kg/min, further enhanced after MK-0626, Figure 4): step-wise increase
